# Patent US10695436B2, “Non-cleavable polymer conjugated with alpha V beta 3 integrin thyroid antagonists” (NANOPHARMACEUTICALS, LLC, priority 2016, dated 2020)
# Legend:
# [1] = tested on: orthotropic brain GBM tumor and subcutaneous GBM xenografts; test: Kinetics of Cy5 labeled conjugates in GBM tumors (IVIS imaging); format: in vivo
# Procedure: Each group of animals was provided with orthotropic implants (GBM) and after tumor growth in the brain and subcutaneously implanted GBM Xenografts. Polymer conjugated MAT 210, TAT 230 or DAT 220 derivatives were injected subcutaneously with P-bi-TAT-Cy5 and other polymer conjugated TAT 230 or DAT 220 derivative-Cy5. IVIS imaging was performed immediately after injection and at 30 min, 1 h, 2 h, 3 h, 4 h to detect the fluorescence intensity at the orthotropic brain xenograft tumor site (brain) and subcutaneous xenografts tumors. […] The graphs depicted in FIGS. 34 and 35 describe the kinetics of the thyrointegrin antagonist derivatives' uptake into GBM tumors in the brain or subcutaneously implanted tumors. FIGS. 34-35 describe the effects of the polymer conjugated thyrointegrin antagonist derivatives containing MAT 210, DAT 220 and TAT 230 over time including bifunctional embodiments thereof.
# [2] = tested on: Matrigel growth factors implant-mediated angiogenesis; test: Mouse Matrigel-growth factors implant angiogenesis model (hemoglobin); format: in vivo; details: 10, 30, 100 μg/10 μl; day 14
# Procedure: The mouse Matrigel model was performed in accordance with institutional guidelines for animal safety and welfare. Female mice C56/BL aged 5-6 weeks and body weights of 20 g were purchased from Taconic Farms (Hudson, N.Y., USA). The animals were maintained under specific pathogen-free conditions and housed 4 animals per cage, under controlled conditions of temperature (20-24° C.) and humidity (60-70%) and a 12 h light/dark cycle. The in vivo study carried out in the animal facility of the Veterans Affairs (VA) Medical Center, Albany, N.Y., and the experimental protocol approved by the VAIACUC. Mice were acclimated for 5 d prior to the start of experiments. […]
# Polymer Conjugated DAT, TAT or MAT derivatives were tested at three different doses (10, 30, 100 μg/10 μl). […] At day 14-post plug implant, all animals were sacrificed and hemoglobin contents were quantitated using spectrophotometry. […]
# Matrigel plug hemoglobin (Hb) content was indexed as a measure of new vascularity formation. […] A volume of 50 μl of supernatant were mixed with 50 μl of Drabkin's reagent and allowed to sit at room temperature for 15-30 min, after which 100 μl was placed in a 96-well plate and absorbance was measured at 540 nm with a Microplate Manager ELISA reader. The Hb concentration was expressed as mg/ml based on comparison with a standard curve.
# [3] = Safety studies, C57BL6 mice, 14 days; format: in vivo
# Procedure: Preclinical toxicology of a representative of the polymer conjugated thyrointegrin antagonist antiangiogenic agent of P-bi-TAT was pursued in 5-to-6 week-old C57BL6 mice, treated for 14 days with varying doses of P-bi-TAT. The treatment groups were control (vehicle), 1 mg/kg, 3 mg/kg, 10 mg/kg, 30 mg/kg, 100 mg/kg and 330 mg/kg P-bi-TAT, administered daily s.c. for 14 days. Each treatment group consisted of 5 male and 5 female animals, and animal weights were measured twice weekly. Mice terminated after 14 days and blood samples collected from the retro-orbital venous plexus. Blood samples centrifuged, and harvested plasma was stored at −80° C. until subjected to analyses described below.
# Liver function was estimated by measurement in stored plasma of alanine transaminase (ALT) and aspartate transaminase (AST) activities (Colorimetric kit, Biovision, Inc., Milpitas, Calif.) the data for which is shown in FIG. 44. Cardiac troponin I (cTnI) levels in plasma were measured by an ELISA method (Life Diagnostics, West Chester, Pa.) as an index of myocardial damage (FIG. 44). It is a troponin found exclusively in the heart and not in other forms of muscle. Kidney function estimated by measurement of plasma creatinine concentration (Colorimetric kit, Biovision, Inc.) (FIG. 44). Satisfactory standard curves were constructed for each of the liver and kidney assays. […]
# U87-luc cells = test: GBM (U87-luc) xenografts, orthotopic and subcutaneous, 7 days treatment; format: in vivo, mouse; details: 1, 3 and 10 mg/kg, SC daily for 7 days
# Procedure: Glioblastoma cells: U87-luc cells implanted orthotopically at 0.2×10^6 cell in 20 ul, in Matrigel and subcutaneously xenografted at 2×10^6 cells/implant with Matrigel in athymic female mice. Animals treated with polymers conjugated thyrointegrin antagonists, including derivatives of P-DAT 720, P-TAT 730 and bifunctional derivatives thereof for 7 days after 1 day post-implant and IVIS imaging of the brain tumor and subcutaneous tumor xenograft. […] FIGS. 38-40 depict the measurable dose-dependent effects of p-bi-TAT 1030 on brain GBM tumor and subcutaneous GBM tumor including the effect on luminescent signals of GBM in the brain, average tumor weight and bioluminescent intensity.
# [4] = tested on: U87MG glioblastoma xenografts; test: U87MG-luc glioblastoma subcutaneous xenografts in the nude mouse; format: in vivo
# Procedure: The xenograft model of glioblastoma is a standard model for study of GBM. In the current studies, athymic, immunodeficient NCr nude mice aged 5-6 weeks and weighing 18-20 g were used. Animals were provided with ad libitum access to water and food. Animals allowed to acclimatize to the facility for 5 days prior to study. Cultured U87MG-luc cells were harvested and implanted subcutaneously (s.c.) in each flank (5×10^6 cells in 100 uL volumes containing 50% Matrigel) Tumors were grown for 2 days (to an initial volume of 150-250 mm^3) before administration of the control, C-DAT 1320, C-TAT 1330, P-TAT 730, P-bi-DAT 1020, P-bi-TAT 1030. Immediately before initiation of treatment at 2 days after implantation, animals were divided into control and treatment groups containing similar distributions of tumor volumes (calipers measurement). Polymer conjugated P-DAT 720 and P-TAT 730 (3 mg or 10 mg/kg body weight) was administered daily s.c. to two groups of animals×21 days, and vehicle (PBS, pH 8.0/0.5% ethanol) was administered daily s.c. to one group of animals as control×21 days. There were 4 animals and 8 grafts/treatment group. The control group and one group of drug-treated animals humanely sacrificed at 21 days; the second group of drug-treated mice observed off therapy for an additional 22 days to detect any tumor re-growth. The second drug-treated group thus observed for a total of 43 days. Tumors harvested and weighed, then fixed, sliced and subjected to hematoxylin and eosin (H&E) staining. Microscopic slides accommodated the full diameter of the control tumors. […]
# Histologic evaluation of paraffin-embedded tissue sections were stained (hematoxylin and eosin), and each section was coded. The area of the section measured with a stage micrometer, and the percentage of viable vs. necrotic tumor, manifested by loss of cell density, dissolution of the plasma membrane and loss of nuclear structure estimated visually. The number of mitoses and apoptotic cells per high power field was counted for 5 fields of viable tumor areas and averaged per tissue section. […]
# [5] = tested on: pancreatic cancer SUIT 2 xenografts; test: Pancreatic cancer SUIT 2 xenografts, with or without radiation; format: in vivo, mouse; details: for Decrease in tumor size, combination with radiation / Decrease in cell viability, combination with radiation / Increase of necrosis, combination with radiation: vs. non-irradiated control; for Tumor weight reduction after 20 days / Increase in % cell necrosis in tissue sections / Percent reduction in tumor cell viability: no radiation
# Procedure: Female NCr mice (Taconic Farms, Hudson, N.Y.) for in vivo studies obtained at 5-6 weeks of age (20 gm body weight) and maintained under specific pathogen-free conditions, and food and water provided ad libitum. The animals allowed to acclimate for 5 days. Cultured human SUIT 2 cells were harvested and implanted subcutaneously (s.c.) in each flank of the mice. Inocula comprising 100 μL, 50% Matrigel °, and containing 2×10^6 tumor cells was prepared. Tumors were grown for 7 days, at which time the animals were randomized into control and P-bi-TAT groups (6 animals/group, 12-carcinoma grafts/group). Starting on day 0, drug was administered at 3 or 10 mg of P-bi-TAT/kg body weight, daily for 20 days (to experimental day 19). Control animals received vehicle (PBS) daily. Animals were sacrificed on experimental day 20. Tumors were harvested and the weight of the tumors were measured. Tumors were formalin-fixed, imbedded in paraffin and sliced.
# Effectiveness of radiation therapy, alone and in conjunction with P-bi-TAT was also assessed. The Radiation treatment was one Gy administered to right flank xenografts on days 10 and 17. Geometry of flank exposure excluded radiation exposure to the left flank of study animals, so that the left flank served as a control in the radiation studies.
substance,measurement,setting,value
"O,O′-Bis({4-[3,5-diiodo-4-(1-methylen-1,2,3-triazol-4-ylmethoxy)phenoxy]-3,5-diiodophenyl}acetic acid) polyethylene glycol [P-bi-TAT]",Cy5 signal in the brain over time,"[1]; subcutaneous injection, IVIS up to 4 hours",seen in the brain at 30 minutes and sustained for the 4 hours of monitoring
same,Cy5 signal in brain GBM tumor versus subcutaneous GBM tumor xenografts,[1]; tumors removed after 4 hours,comparable
same,Anti-angiogenic effect (Matrigel plug hemoglobin levels),[2],dose dependent response on angiogenesis
same,Body weights,[3]; 1-330 mg/kg daily s.c. for 14 days,unaffected
same,"Liver, heart or kidney toxicity (ALT, AST, cTnI, creatinine in plasma)","[3]; male and female mice, 2 weeks, up to 100-fold the efficacious dose (3-10 mg/kg)","no evidence of liver, heart or kidney toxicity"
same,Suppression of tumor and cell viability in brain and subcutaneous GBM tumor,U87-luc cells,dose dependent suppression of the tumor
same,Reduction in tumor cell viability (histological score),[4]; 3 mg P-bi-TAT/kg s.c. daily for 21 days,62%
same,Reductions in cell viability achieved by day 21,"[4]; 3 mg/kg and 10 mg/kg dosages, histologic evaluation",60-70%
same,Reduction in tumor cell viability (histological score),[4]; 10 mg P-bi-TAT/kg s.c. daily for 21 days,72%
same,"Decrease in tumor size, combination with radiation",[5]; 3 mg P-bi-TAT/kg plus one Gy radiation,71%
same,Tumor weight reduction after 20 days,[5]; 3 mg/kg daily,55%
same,"Decrease in cell viability, combination with radiation",[5]; 3 mg/kg plus 1 Gy radiation,54%
same,"Increase of necrosis, combination with radiation",[5]; 3 mg/kg plus 1 Gy radiation,65%
same,Increase in % cell necrosis in tissue sections,[5]; 3 mg/kg,not significant
same,Percent reduction in tumor cell viability,[5]; 3 mg/kg,insignificant
same,"Decrease in tumor size, combination with radiation",[5]; 10 mg P-bi-TAT/kg plus one Gy radiation,77%
same,Tumor weight reduction after 20 days,[5]; 10 mg/kg daily,65%
same,"Decrease in cell viability, combination with radiation",[5]; 10 mg/kg plus 1 Gy radiation,68%
same,"Increase of necrosis, combination with radiation",[5]; 10 mg/kg plus 1 Gy radiation,70%
same,Increase in % cell necrosis in tissue sections,[5]; 10 mg/kg,more than a doubling
same,Percent reduction in tumor cell viability,[5]; 10 mg/kg,43%
